Measured values: patent US9469639B2, “Naphthylurea derivatives and medical applications thereof” (RADIANT PHARMA & TECH. CO., LTD., priority 2013, dated 2016)
Values after ≈ are worked out from the molar mass of the structure shown.

Experiment: Water-solubility test
Format: physicochemical
Details: 22° C.; for solubility at 24 h: water, pH 5.5, water, thermodynamic from solid, ultrasonic mixing for 24 hours, pH5.5, average of two experiments

Row | solubility at 24 h [µg/mL] | Water solubility relative to compound (IV) (pH5.5, ratio versus compound (IV)) [times] | Structure (SMILES)
1 | 0.0925 (≈ 0.226 µM) | – | Cc1cccc(NC(=O)Nc2ccc(-c3cncc4[nH]nc(N)c34)c3ccccc23)c1 [Compound (IV)]
2 | 0.64 (≈ 1.16 µM) | 6.9 | Cc1ccc(F)c(NC(=O)Nc2ccc(-c3ccc(OCCCN4CCCC4)c4[nH]nc(N)c34)c3ccccc23)c1 [Compound (V)]
